Test results reported in ChEMBL document CHEMBL2440076, “New triarylpyrazoles as broad-spectrum anticancer agents: design, synthesis, and biological evaluation” (Eur J Med Chem, 2013).

Legend:
Type in all cases: functional
[1] = tested on: 786-0; assay: Growth inhibition of human 786-0 cells assessed as cell growth at 3X10'-7 M after 48 hrs by sulforhodamine B assay; settings: 786-0, 48 h, read-out: Activity
[2] = tested on: IGROV-1; assay: Growth inhibition of human IGROV1 cells assessed as cell growth at 3X10'-7 M after 48 hrs by sulforhodamine B assay; settings: IGROV-1, 48 h, read-out: Activity
[3] = tested on: SF-268; assay: Growth inhibition of human SF268 cells assessed as cell growth at 3X10'-7 M after 48 hrs by sulforhodamine B assay; settings: SF-268, 48 h, read-out: Activity
[4] = tested on: HCT-116; assay: Growth inhibition of human HCT116 cells assessed as cell growth at 3X10'-7 M after 48 hrs by sulforhodamine B assay; settings: HCT-116, 48 h, read-out: Activity
[5] = tested on: MOLT-4; assay: Growth inhibition of human MOLT4 cells assessed as cell growth at 3X10'-7 M after 48 hrs by sulforhodamine B assay; settings: MOLT-4, 48 h, read-out: Activity
[6] = tested on: SN12C; assay: Growth inhibition of human SN12C cells assessed as cell growth at 3X10'-8 M after 48 hrs by sulforhodamine B assay; settings: read-out: Activity
[7] = tested on: RXF 393; assay: Growth inhibition of human RXF393 cells assessed as cell growth at 3X10'-8 M after 48 hrs by sulforhodamine B assay; settings: RXF 393, 48 h, read-out: Activity
[8] = tested on: UACC-257; assay: Growth inhibition of human UACC257 cells assessed as cell growth at 3X10'-8 M after 48 hrs by sulforhodamine B assay; settings: UACC-257, 48 h, read-out: Activity
[9] = tested on: SK-MEL-5; assay: Growth inhibition of human SK-MEL-5 cells assessed as cell growth at 3X10'-8 M after 48 hrs by sulforhodamine B assay; settings: SK-MEL-5, 48 h, read-out: Activity
[10] = tested on: SK-MEL-2; assay: Growth inhibition of human SK-MEL-2 cells assessed as cell growth at 3X10'-8 M after 48 hrs by sulforhodamine B assay; settings: SK-MEL-2, 48 h, read-out: Activity
[11] = tested on: MDA-MB-435; assay: Growth inhibition of human MDA-MB-435 cells assessed as cell growth at 3X10'-8 M after 48 hrs by sulforhodamine B assay; settings: MDA-MB-435, 48 h, read-out: Activity
[12] = tested on: LOX IMVI; assay: Growth inhibition of human LOXIMVI cells assessed as cell growth at 3X10'-8 M after 48 hrs by sulforhodamine B assay; settings: read-out: Activity
[13] = tested on: SNB-19; assay: Growth inhibition of human SNB19 cells assessed as cell growth at 3X10'-8 M after 48 hrs by sulforhodamine B assay; settings: SNB-19, 48 h, read-out: Activity
[14] = tested on: HCT-15; assay: Growth inhibition of human HCT15 cells assessed as cell growth at 3X10'-8 M after 48 hrs by sulforhodamine B assay; settings: HCT-15, 48 h, read-out: Activity
[15] = tested on: HCT-116; assay: Growth inhibition of human HCT116 cells assessed as cell growth at 3X10'-8 M after 48 hrs by sulforhodamine B assay; settings: HCT-116, 48 h, read-out: Activity
[16] = tested on: NCI-H460; assay: Growth inhibition of human NCI-H460 cells assessed as cell growth at 3X10'-8 M after 48 hrs by sulforhodamine B assay; settings: NCI-H460, 48 h, read-out: Activity
[17] = tested on: HL-60(TB); assay: Growth inhibition of human HL-60(TB) cells assessed as cell growth at 3X10'-8 M after 48 hrs by sulforhodamine B assay; settings: HL-60, 48 h, read-out: Activity
[18] = tested on: TK-10; assay: Growth inhibition of human TK10 cells assessed as cell growth at 3X10'-9 M after 48 hrs by sulforhodamine B assay; settings: TK-10, 48 h, read-out: Activity
[19] = tested on: 786-0; assay: Growth inhibition of human 786-0 cells assessed as cell growth at 3X10'-9 M after 48 hrs by sulforhodamine B assay; settings: 786-0, 48 h, read-out: Activity
[20] = Growth inhibition of human NCI-ADR-RES cells assessed as cell growth at 3X10'-9 M after 48 hrs by sulforhodamine B assay; settings: read-out: Activity
[21] = tested on: OVCAR-4; assay: Growth inhibition of human OVCAR4 cells assessed as cell growth at 3X10'-9 M after 48 hrs by sulforhodamine B assay; settings: OVCAR-4, 48 h, read-out: Activity
[22] = tested on: NCI-H23; assay: Growth inhibition of human NCI-H23 cells assessed as cell growth at 3X10'-5 M after 48 hrs by sulforhodamine B assay; settings: NCI-H23, 48 h, read-out: Activity
[23] = tested on: NCI-H226; assay: Growth inhibition of human NCI-H226 cells assessed as cell growth at 3X10'-5 M after 48 hrs by sulforhodamine B assay; settings: NCI-H226, 48 h, read-out: Activity
[24] = tested on: SR; assay: Growth inhibition of human SR cells assessed as cell growth at 3X10'-5 M after 48 hrs by sulforhodamine B assay; settings: read-out: Activity
[25] = tested on: T47D; assay: Growth inhibition of human T47D cells assessed as cell growth at 3X10'-6 M after 48 hrs by sulforhodamine B assay; settings: read-out: Activity
[26] = tested on: DU-145; assay: Growth inhibition of human DU145 cells assessed as cell growth at 3X10'-6 M after 48 hrs by sulforhodamine B assay; settings: DU-145, 48 h, read-out: Activity
[27] = tested on: UO-31; assay: Growth inhibition of human UO31 cells assessed as cell growth at 3X10'-6 M after 48 hrs by sulforhodamine B assay; settings: UO-31, 48 h, read-out: Activity
[28] = tested on: SN12C; assay: Growth inhibition of human SN12C cells assessed as cell growth at 3X10'-6 M after 48 hrs by sulforhodamine B assay; settings: read-out: Activity
[29] = tested on: LOX IMVI; assay: Growth inhibition of human LOXIMVI cells assessed as cell growth at 3X10'-9 M after 48 hrs by sulforhodamine B assay; settings: read-out: Activity
[30] = tested on: ACHN; assay: Growth inhibition of human ACHN cells assessed as cell growth at 3X10'-6 M after 48 hrs by sulforhodamine B assay; settings: read-out: Activity
[31] = tested on: OVCAR-4; assay: Growth inhibition of human OVCAR4 cells assessed as cell growth at 3X10'-6 M after 48 hrs by sulforhodamine B assay; settings: OVCAR-4, 48 h, read-out: Activity
[32] = tested on: IGROV-1; assay: Growth inhibition of human IGROV1 cells assessed as cell growth at 3X10'-6 M after 48 hrs by sulforhodamine B assay; settings: IGROV-1, 48 h, read-out: Activity
[33] = tested on: UACC-62; assay: Growth inhibition of human UACC62 cells assessed as cell growth at 3X10'-6 M after 48 hrs by sulforhodamine B assay; settings: UACC-62, 48 h, read-out: Activity
[34] = tested on: M14; assay: Growth inhibition of human M14 cells assessed as cell growth at 3X10'-6 M after 48 hrs by sulforhodamine B assay; settings: M14, 48 h, read-out: Activity
[35] = tested on: U-251; assay: Growth inhibition of human U251 cells assessed as cell growth at 3X10'-6 M after 48 hrs by sulforhodamine B assay; settings: U-251, 48 h, read-out: Activity
[36] = tested on: HL-60(TB); assay: Growth inhibition of human HL-60(TB) cells assessed as cell growth at 3X10'-6 M after 48 hrs by sulforhodamine B assay; settings: HL-60, 48 h, read-out: Activity
[37] = tested on: SF-295; assay: Growth inhibition of human SF295 cells assessed as cell growth at 3X10'-5 M after 48 hrs by sulforhodamine B assay; settings: SF-295, 48 h, read-out: Activity

Row | SMILES | growth at 0.3 µM [1] [%] | growth at 0.3 µM [2] [%] | growth at 0.3 µM [3] [%] | growth at 0.3 µM [4] [%] | growth at 0.3 µM [5] [%] | growth at 0.03 µM [6] [%] | growth at 0.03 µM [7] [%] | growth at 0.03 µM [8] [%] | growth at 0.03 µM [9] [%] | growth at 0.03 µM [10] [%] | growth at 0.03 µM [11] [%] | growth at 0.03 µM [12] [%] | growth at 0.03 µM [13] [%] | growth at 0.03 µM [14] [%] | growth at 0.03 µM [15] [%] | growth at 0.03 µM [16] [%] | growth at 0.03 µM [17] [%] | growth at 0.003 µM [18] [%] | growth at 0.003 µM [19] [%] | growth at 0.003 µM [20] [%] | further results
1 | O=C(Nc1cccc(-n2cc(-c3ccncc3)c(-c3ccc(Cl)c(O)c3)n2)c1)Nc1ccc(Cl)c(Cl)c1 | 103 | 107 | 102 | 99 | 101 | 96 | 100 | 93 | 96 | 106 | 96 | 91 | 98 | 103 | 100 | 105 | 101 | 96 | 97 | 100 | growth at 0.003 µM [21]: 103%; growth at 30 µM [22]: -1%; growth at 30 µM [23]: 12%; growth at 30 µM [24]: -5%; growth at 3 µM [25]: 26%; growth at 3 µM [26]: 22%; growth at 3 µM [27]: 19%; growth at 3 µM [28]: 17%; growth at 0.003 µM [29]: 96%; growth at 3 µM [30]: 5%; growth at 3 µM [31]: 28%; growth at 3 µM [32]: 29%; growth at 3 µM [33]: 14%; growth at 3 µM [34]: 14%; growth at 3 µM [35]: 25%; growth at 3 µM [36]: 16%
2 | O=C(Nc1cccc(-n2cc(-c3ccncc3)c(-c3ccc(Cl)c(O)c3)n2)c1)Nc1cccc(C(F)(F)F)c1 | 99 | 100 | 96 | 98 | 97 | 98 | 97 | 100 | 98 | 98 | 100 | 95 | 98 | 100 | 97 | 101 | 94 | 94 | 98 | 99 | growth at 0.003 µM [21]: 101%; growth at 30 µM [37]: -53%; growth at 30 µM [22]: 6%; growth at 30 µM [23]: 20%; growth at 30 µM [24]: -9%; growth at 3 µM [25]: 44%; growth at 3 µM [26]: 33%; growth at 3 µM [27]: 37%; growth at 3 µM [28]: 37%; growth at 0.003 µM [29]: 97%; growth at 3 µM [30]: 21%; growth at 3 µM [31]: 49%; growth at 3 µM [32]: 29%; growth at 3 µM [33]: 33%; growth at 3 µM [34]: 21%; growth at 3 µM [35]: 29%; growth at 3 µM [36]: 41%
3 | O=C(Nc1cccc(-n2cc(-c3ccncc3)c(-c3ccc(Cl)c(O)c3)n2)c1)Nc1ccc(Cl)c(C(F)(F)F)c1 | 96 | 85 | 93 | 94 | 83 | 94 | 93 | 94 | 94 | 113 | 94 | 99 | 94 | 95 | 106 | 100 | 116 | 101 | 98 | 102 | growth at 0.003 µM [21]: 99%; growth at 30 µM [37]: -41%; growth at 30 µM [22]: -55%; growth at 30 µM [23]: 5%; growth at 30 µM [24]: -7%; growth at 3 µM [25]: 11%; growth at 3 µM [26]: 10%; growth at 3 µM [27]: -3%; growth at 3 µM [28]: 15%; growth at 0.003 µM [29]: 100%; growth at 3 µM [30]: 8%; growth at 3 µM [31]: 17%; growth at 3 µM [32]: -17%; growth at 3 µM [33]: -48%; growth at 3 µM [34]: -7%; growth at 3 µM [35]: -61%; growth at 3 µM [36]: 6%
